Results taken from publication PMC10965847, “Expanding a peptide-covalent probe hybrid for PET imaging of S. aureus driven focal infections” (EJNMMI Radiopharmacy and Chemistry, 2024).
“Also recorded” adds a separate entry of the source.

What was measured:
[1] = tested on: S. aureus membrane; assay: Membrane depolarization, DiOC2(3), flow cytometry; assay type: cell-based; settings: 5 µM CCCP; DiOC2(3) 30 µM; result in words
Excerpt: AMPs are reported to destroy bacterial cells by permeabilizing the membrane, followed by depolarization (Mitra et al. [2020]; Bhatt Mitra et al. [2020]). To explore if UBI-APBA utilized this strategy to adversely affect the survival of S. aureus, depolarization and permeabilization of S. aureus membrane was studied by flow cytometry. […] Furthermore, we investigated the permeabilization of the S. aureus membrane by assessing propidium iodide uptake (PI).
For the permeabilization study, peptide-treated cells were washed with saline followed by staining with DNA stain, propidium iodide (PI) at a final concentration of 45 µM (30 min at 37 °C and 120 rpm). Isopropanol treated cells were used as positive control. The % permeabilization was calculated after normalizing the values with respect to the untreated (0% permeabilization) and isopropanol treated cells (100% permeabilization).
Positive control for membrane depolarization studies was prepared by incubating bacteria under similar conditions with 5 µM CCCP.

[2] = tested on: human erythrocytes; assay: Haemolysis assay; settings: 30 min, 37 °C, result in words; for haemolysis: human erythrocytes 4% (v/v) in PBS, 8, 32 and 128 µM, absorbance 540 nm, duplicates; for haemolysis (positive controls): human erythrocytes 4% (v/v), melittin 17 µM (50 µg/mL), triton X-100 0.1% (v/v)
Method: The haemolysis assay is widely used to assess the therapeutic potential of a given AMP. AMPs that cause ruptured RBCs at their MICs naturally have low therapeutic potential.
Fresh human blood samples were obtained from healthy donors with the approval of the institutional medical ethics committee. Erythrocytes were isolated from heparinized human blood by centrifugation at 2000g for 5 min after washing three times with PBS at 4 °C. After removing the supernatant, the cell pellet was resuspended in 2 mL of PBS, and cells were diluted at 4% (v/v) for the haemolysis experiment. […] Samples were centrifuged at 2000g for 5 min, and the absorbance of supernatants was measured at 540 nm using a polarstar omega plate reader from BMG Labtech. Erythrocytes lysed with 0.1% triton X-100 and 50 µg/mL melittin were used as positive controls. Percentage haemolysis was calculated using the formula: Haemolysis (%) = (ASAMPLE − ANG)/(APC − ANG) × 100[ASAMPLE = Absorbance recorded for samples at 540 nm, ANG = Absorbance recorded for untreated (negative control) erythrocytes at 540 nm, APC = Absorbance recorded for Melittin treated (positive control) erythrocytes at 540 nm]. One-way ANOVA was used to establish the presence of significant groups, and Tukey’s test was subsequently utilized to conduct the comparison of means.

[3] = tested on: HEK 293 cells; assay: Cell cytotoxicity (MTT) assay; settings: HEK 293, MTT, 24 h, result in words
Method: Human embryonic kidney (HEK 293) cells were maintained in DMEM supplemented with 10% FBS and 1% antibiotic-antimycotic solution at 37 °C, 5% CO2 in humidified atmosphere.
Cell cytotoxicity was measured by performing 3-(4,5-dimethylthiazol-2-yl)-2,5-diphenyltetrazolium bromide) (MTT) assay. Briefly, 2000 cells/100 µL were seeded in a 96-well plate and kept overnight in incubator at 37 °C, 5% CO2. […] Melittin (17 µM) was used as a positive control for cytotoxicity assay. Following incubation, 10 µL of MTT was added to each well and after 3 h the supernatant was removed and 100 µL of dimethyl sulfoxide (DMSO) was added. After 1 h incubation, the absorbance was recorded at 570 nm. One-way ANOVA was used to establish the presence of significant groups, and Tukey’s test was subsequently utilized to conduct the comparison of means.

[4] = tested on: S. aureus, ATCC 25,923; assay: MIC by resazurin (alamar blue) reduction, broth dilution; assay type: cell-based; settings: for growth inhibitory (bacteriostatic) / bactericidal effect on S. aureus: MIC and MBC assays, result in words
Method: (§1) The MICs were determined as the lowest concentration at which the conversion of the resazurin dye from blue to pink was absent. Conversely, the minimum bactericidal concentrations (MBC) were determined using the spot assay shown in Fig. 3a, where the absence of a bacterial lawn indicated the minimum required concentration for bacterial killing. […] Although UBI has been previously reported as bactericidal against S. aureus, the experimental conditions and strain utilized were different (Brouwer et al. [2006]).
A single colony of S. aureus, ATCC 25,923 (Microbiologics) was inoculated in Mueller Hinton broth (MHB) and incubated overnight at 120 rpm (revolutions per minute) and 37 °C. The experiment was carried out in a 96-microtiter plate using a broth dilution assay wherein all the peptides (ABI scientific) were diluted two-fold in each step-in media (M9 supplemented with 0.01% Tryptone). Cells were washed twice with media and diluted to a final concentration of 10^5 colony forming units (CFU) at each well. The final volume in each well was 200 µL. […] After 24 h, 30 µL of 0.75 mg/mL of resazurin dye (HiMedia Labs) was added in each of the wells and kept for incubation overnight at 37 °C with mild shaking. The next day, the 96 well plates as well as MHB-agar plates, were observed, and results were recorded. The experiment was carried out in triplicates. As mentioned earlier, S. aureus was cultured and washed with media to carry out a time-kill assay. Experiments were performed in microfuge tubes. ~10^6 cells were incubated with minimum inhibitory concentration (MIC) of UBI-APBA (2 µM) at a final volume of 500 µL adjusted with M9 media. Cells and UBI were incubated in media at 37 °C at 120 rpm. 50 µL aliquots from each reaction mixture were removed at required time intervals. These aliquots were plated on the MHB agar plates and incubated at 37 °C. The following day, colonies were counted to get CFU. Surviving fractions were plotted against time. Origin graphing and analysis 6.0 Pro software was used for plotting and analysis of data.

[5] = tested on: S. aureus; settings: different experimental conditions and strain; ref Brouwer et al. [2006]; cited from earlier work
Method: The MICs were determined as the lowest concentration at which the conversion of the resazurin dye from blue to pink was absent. Conversely, the minimum bactericidal concentrations (MBC) were determined using the spot assay shown in Fig. 3a, where the absence of a bacterial lawn indicated the minimum required concent ...

[6] = In vitro stability of ^68Ga complexes in PBS; assay type: physicochemical; settings: 1:10 dilution, 37 °C, 3 h, radio-HPLC
[7] = shake-flask octanol/water 1:1 (25 µL sample + 975 µL water + 1 mL octanol), vortexed, 5 min, centrifuged; NaI(Tl) counting; n = 4
Method: Partition coefficients for ^68Ga complexes were determined by mixing 25 µL of sample with 975 µL water and 1 mL octanol (octanol: water = 1:1). Thereafter, the mixture was vortexed and incubated for 5 min, followed by centrifugation for 5 min at 3000 rpm for separation of aqueous and organic phase. NaI (Tl) counter was used to measure the activity associated with both the phases and log P value [logarithm of the activity concentration in n-Octanol / activity concentration in the aqueous layer] was calculated.

[8] = in vitro; settings: human, human serum
Method: The hydrophilicity of complexes is a predictor of fast renal clearance, which is desirable for diagnostic radiopharmaceuticals.
To assess the stability of the ^68Ga labeled peptide conjugates in PBS, 50 µL of complexes were added to 450 µL of PBS (1:10 dilution) and incubated at 37 °C for 3 h. Aliquots were taken at the end of incubation and analyzed by HPLC, as described previously. Similarly, to estimate the integrity of the ^68Ga complexes in serum, incubation was done with human serum at 1:10 dilution for 3 h at 37 °C. Samples were precipitated with 2% trichloroacetic acid (TCA), separated by centrifuging at 10,000g for 5 min, and analyzed by HPLC.

[9] = tested on: S. aureus, ATCC 25,923; assay: MBC by spot assay on MHB-agar; assay type: cell-based; settings: 5 µL aliquots from MIC wells spotted on MHB-agar, overnight 37 °C, absence of bacterial lawn, triplicates
Method: as §1
A single colony of S. aureus, ATCC 25,923 (Microbiologics) was inoculated in Mueller Hinton broth (MHB) and incubated overnight at 120 rpm (revolutions per minute) and 37 °C. The experiment was carried out in a 96-microtiter plate using a broth dilution assay wherein all the peptides (ABI scientific) were diluted two-fold in each step-in media (M9 supplemented with 0.01% Tryptone). Cells were washed twice with media and diluted to a final concentration of 10^5 colony forming units (CFU) at each well. The final volume in each well was 200 µL. […] After 24 h, 30 µL of 0.75 mg/mL of resazurin dye (HiMedia Labs) was added in each of the wells and kept for incubation overnight at 37 °C with mild shaking. The next day, the 96 well plates as well as MHB-agar plates, were observed, and results were recorded. […] The following day, colonies were counted to get CFU. […]

## N#CC(C#N)=NNc1cccc(Cl)c1 [CCCP, Carbonyl cyanide m-chlorophenyl hydrazone]
[1]
  depolarization of bacterial membrane (positive control): low red to green fluorescence intensity ratio

## CSCC[C@H](NC(=O)[C@H](CCCNC(=N)N)NC(=O)[C@H](CCCNC(=N)N)NC(=O)[C@H](CCCCN)NC(=O)[C@H](C)NC(=O)[C@H](CCCNC(=N)N)NC(=O)CNC(=O)[C@@H](N)[C@@H](C)O)C(=O)N[C@@H](CCC(N)=O)C(=O)N[C@@H](Cc1ccc(O)cc1)C(=O)N[C@@H](CC(N)=O)C(=O)N[C@@H](CCCNC(=N)N)C(=O)N[C@@H](CCCNC(=N)N)C(=O)NCC(=O)N[C@@H](CSCCCNC(=O)COc1ccc(C(C)=O)c(B(O)O)c1)C(N)=O [UBI-APBA]
[2]
  haemolysis: neither hemolytic nor cytotoxic
[3]; 128 µM (64 × MIC of UBI-APBA), n = 3
  cell cytotoxicity: minimal cytotoxicity; also recorded: neither hemolytic nor cytotoxic

## CSCC[C@H](NC(=O)[C@H](CCCNC(=N)N)NC(=O)[C@H](CCCNC(=N)N)NC(=O)[C@H](CCCCN)NC(=O)[C@H](C)NC(=O)[C@H](CCCNC(=N)N)NC(=O)CNC(=O)[C@@H](N)[C@@H](C)O)C(=O)N[C@@H](CCC(N)=O)C(=O)N[C@@H](Cc1ccc(O)cc1)C(=O)N[C@@H](CC(N)=O)C(=O)N[C@@H](CCCNC(=N)N)C(=O)N[C@@H](CCCNC(=N)N)C(=O)NCC(=O)N[C@@H](CS)C(N)=O [UBI]
[2]
  haemolysis: neither hemolytic nor cytotoxic
[4]
  growth inhibitory (bacteriostatic) / bactericidal effect on S. aureus: no such effect
[5]
  activity against S. aureus as previously reported: bactericidal

## CSCC[C@H](NC(=O)[C@H](CCCNC(=N)N)NC(=O)[C@H](CCCNC(=N)N)NC(=O)[C@H](CCCCN)NC(=O)[C@H](C)NC(=O)[C@H](CCCNC(=N)N)NC(=O)CNC(=O)[C@@H](NC(=O)CCC(C(=O)O)N1CCN(CC(=O)O)CCN(CC(=O)O)CC1)[C@@H](C)O)C(=O)N[C@@H](CCC(N)=O)C(=O)N[C@@H](Cc1ccc(O)cc1)C(=O)N[C@@H](CC(N)=O)C(=O)N[C@@H](CCCNC(=N)N)C(=O)N[C@@H](CCCNC(=N)N)C(=O)NCC(=O)N[C@@H](CS)C(N)=O (stereo partly shown) [[^68Ga]Ga-UBI, metal not drawn]
[6]
  RCP after incubation in PBS: 99%
[7]
  Partition coefficient, Log P: -3.8 ± 0.15
[8]
  remaining at 3 h: 97%

## CSCC[C@H](NC(=O)[C@H](CCCNC(=N)N)NC(=O)[C@H](CCCNC(=N)N)NC(=O)[C@H](CCCCN)NC(=O)[C@H](C)NC(=O)[C@H](CCCNC(=N)N)NC(=O)CNC(=O)[C@@H](NC(=O)CCC(C(=O)O)N1CCN(CC(=O)O)CCN(CC(=O)O)CC1)[C@@H](C)O)C(=O)N[C@@H](CCC(N)=O)C(=O)N[C@@H](Cc1ccc(O)cc1)C(=O)N[C@@H](CC(N)=O)C(=O)N[C@@H](CCCNC(=N)N)C(=O)N[C@@H](CCCNC(=N)N)C(=O)NCC(=O)N[C@@H](CSCCCNC(=O)COc1ccc(C(C)=O)c(B(O)O)c1)C(N)=O (stereo partly shown) [[^68Ga]Ga-UBI-APBA, metal not drawn]
[8]
  remaining at 3 h: 91%

## Acetyl-cysteine-2-acetyl boronic acid [AcCys-2-APBA]
[9]
  MBC: > 32 µM
[4]
  growth inhibitory (bacteriostatic) / bactericidal effect on S. aureus: no such effect
[4]; S. aureus ATCC 25,923, two-fold broth dilution in M9 + 0.01% Tryptone, 10^5 CFU per well, 200 µL, resazurin added after 24 h, overnight 37 °C, lowest concentration without blue-to-pink conversion, visual, triplicates
  MIC: > 32 µM

## melittin
[2]
  haemolysis (positive controls): induced haemolysis
[3]; melittin 17 µM
  cell cytotoxicity (positive control): cytotoxic

## triton X-100
[2]
  haemolysis (positive controls): induced haemolysis
